PubChem BioAssay AID1495 (Sanford-Burnham Center for Chemical Genomics, 2009)

Target: Chaperone protein DnaK (Escherichia coli) (UniProt C3TRK2)
Assay: E. coli DnaK binders, calorimetric Kd – biophysical, isothermal titration calorimetry, beta-domain, full-length DnaK, orthogonal assay for DnaK modulator project, SAR follow-up (AID 1495)
Conditions: purified DnaK, isothermal titration calorimetry binding
[1] = measured here: substrate peptide Kd, compound-saturated DnaK
[2] = measured here: Kd to DnaK substrate-binding domain

Kd [1]	Kd [2]	Kd (measured here: ATP Kd, compound-saturated DnaK)	SMILES
1.2 µM	–	–	O=C(NCc1ccccc1O)c1cccs1
–	1 µM	–	O=C(NCc1cccc2ccccc12)c1cccs1
–	47.6 µM	–	Cc1ccc(C(=O)NCc2ccc(F)cc2)o1
2.2 µM	4.9 µM	–	O=C(Nc1ccc2[nH]ccc2c1)c1cccs1
7.9 µM	–	–	O=C(c1cccs1)N1CCN(CCO)CC1
–	–	2.5 µM	O=C(NCc1cccc2ccsc12)c1cccs1
0.6 µM	–	–	O=C(NCc1ccc(Cl)c(Cl)c1)c1cccs1
–	64.1 µM	–	O=C(NCc1ccccc1F)c1cccs1
–	14.3 µM	–	O=C(NCc1ccccc1Br)c1cccs1
0.2 µM	13.7 µM	–	CC(Cc1ccc(F)cc1)NC(=O)c1cccs1 (stereo not given)
–	25 µM	–	Cc1ccc(CNC(=O)c2ccc([N+](=O)[O-])o2)cc1
–	1.5 µM	–	O=C(Nc1ncc2ccccc2n1)c1cccs1
–	19.3 µM	–	Cc1ccc(C(=O)NCc2ccc(Cl)cc2)o1
